Data published in US11497212B2, “Substituted thiophenyl uracils, salts thereof and the use thereof as herbicidal agents” (Syngenta Crop Protection AG, priority 2017, dated 2022).

What was measured:
Type in all cases: in vivo
Abutilon theophrasti = assay: Herbicidal action post-emergence (greenhouse pot trial); conditions: application rate 20 g/ha, scored visually after about 3 weeks vs untreated controls
Description: (§1) Seeds of mono- and dicotyledonous weed plants and crop plants are laid out in sandy loam soil in plastic or wood-fiber pots, covered with earth and grown under controlled growth conditions in a greenhouse. 2 to 3 weeks after sowing, the trial plants are treated at the one-leaf stage. The compounds of the invention formulated in the form of wettable powders (WP) or emulsion concentrates (EC) were then sprayed onto the green parts of the plant as an aqueous suspension or emulsion with addition of 0.5% additive at a water application rate equivalent to 600 L/ha. After the trial plants had stood for about 3 weeks in the greenhouse, under optimal growth conditions, the effect of the preparations was scored visually by comparison with untreated controls. For example, 100% efficacy=plants have died, 0% efficacy=like control plants. Tables A1 to A15 below show the efficacies of selected compounds of the general formula (I) according to tables I.1 to I.60 on various harmful plants and an application rate corresponding to 80 g/ha or lower that were obtained by the aforementioned trial method.

Amaranthus retroflexus = assay: as above; conditions: application rate 20 g/ha, scored visually after about 3 weeks vs untreated controls
Description: as §1

Digitaria sanguinalis = assay: as above; conditions: application rate 20 g/ha
Description: as §1

Echinochloa crus-galli = assay: as above; conditions: application rate 20 g/ha, scored visually after about 3 weeks vs untreated controls
Description: as §1

Matricaria inodora = assay: as above; conditions: application rate 20 g/ha, scored visually after about 3 weeks vs untreated controls
Description: as §1

Pharbitis purpurea = assay: as above; conditions: application rate 20 g/ha
Description: as §1

Polygonum convolvulus = assay: as above; conditions: application rate 20 g/ha, scored visually after about 3 weeks vs untreated controls
Description: as §1

Setaria viridis = assay: as above; conditions: application rate 20 g/ha, scored visually after about 3 weeks vs untreated controls
Description: as §1

Stellaria media = assay: as above; conditions: application rate 20 g/ha, scored visually after about 3 weeks vs untreated controls
Description: as §1

Veronica persica = assay: as above; conditions: application rate 20 g/ha
Description: as §1

Viola tricolor = assay: as above; conditions: application rate 20 g/ha
Description: as §1

Oryza sativa = assay: Crop compatibility post-emergence (greenhouse pot trial)
Description: as §1, with “plants.” for “plants. Tables A1 to A15 below show the efficacies of selected compounds of the general formula (I) according to tables I.1 to I.60 on various harmful plants and an application rate corresponding to 80 g/ha or lower that were obtained by the aforementioned trial method.”
(§2) Crop plant compatibilities were also scored correspondingly.
(§3) The effects observed are reported here on selected crop plants by comparison with the untreated controls (values in %).

Triticum aestivum = assay: as above
Description: as §1, with “plants.” for “plants. Tables A1 to A15 below show the efficacies of selected compounds of the general formula (I) according to tables I.1 to I.60 on various harmful plants and an application rate corresponding to 80 g/ha or lower that were obtained by the aforementioned trial method.”
as §2, §3

Zea mays = assay: as above
Description: as §1, with “plants.” for “plants. Tables A1 to A15 below show the efficacies of selected compounds of the general formula (I) according to tables I.1 to I.60 on various harmful plants and an application rate corresponding to 80 g/ha or lower that were obtained by the aforementioned trial method.”
as §2, §3

Alopecurus myosuroides = assay: Herbicidal action post-emergence (greenhouse pot trial); conditions: application rate 20 g/ha, scored visually after about 3 weeks vs untreated controls
Description: as §1

Compound	Abutilon theophrasti (Efficacy in %) (Abutilon theophrasti) [%]	Amaranthus retroflexus (Efficacy in %) (Amaranthus retroflexus) [%]	Digitaria sanguinalis (Efficacy in %) (Digitaria sanguinalis) [%]	Echinochloa crus-galli (Efficacy in %) (Echinochloa crus-galli) [%]	Matricaria inodora (Efficacy in %) (Matricaria inodora) [%]	Pharbitis purpurea (Efficacy in %) (Pharbitis purpurea) [%]	Polygonum convolvulus (Efficacy in %) (Polygonum convolvulus) [%]	Setaria viridis (Efficacy in %) (Setaria viridis) [%]	Stellaria media (Efficacy in %) (Stellaria media) [%]	Veronica persica (Efficacy in %) (Veronica persica) [%]	Viola tricolor (Efficacy in %) (Viola tricolor) [%]	Oryza sativa (Efficacy in %) (Oryza sativa; application rate 20 g/ha) [%]	Triticum aestivum (Efficacy in %) (Triticum aestivum; application rate 20 g/ha) [%]	Triticum aestivum (Efficacy in %) (Triticum aestivum; application rate 5 g/ha) [%]	Zea mays (Efficacy in %) (Zea mays; application rate 5 g/ha) [%]	Alopecurus myosuroides (Efficacy in %) (Alopecurus myosuroides) [%]	Zea mays (Efficacy in %) (Zea mays; application rate 80 g/ha) [%]	Zea mays (Efficacy in %) (Zea mays; application rate 20 g/ha) [%]	Oryza sativa (Efficacy in %) (Oryza sativa; application rate 5 g/ha) [%]
CC(Sc1cc(-n2c(=O)cc(C(F)(F)F)n(C)c2=O)c(F)cc1Cl)C(=O)OCCCOCc1ccccc1 (stereo not drawn) [I.1-30]	100	100	100	100	100	100	100	100	90	100	100	0	20						
Cc1c(C(F)(F)F)n(C)c(=O)n(-c2cc(SCC(C)(C)C(=O)OCC3CCSC3)c(Cl)cc2F)c1=O (stereo not drawn) [I.54-82]	100	100								80	90	0		0	20				
Cn1c(C(F)(F)F)cc(=O)n(-c2cc(SCC(C)(C)C(=O)OC3CCOCC3)c(Cl)cc2F)c1=O [I.48-127]	100	100			90	90	90		100	100	100	0	10		20				
CCC(Sc1cc(-n2c(=O)cc(C(F)(F)F)n(C)c2=O)c(F)cc1Cl)C(=O)OCC1CCCCO1 (stereo not drawn) [I.2-91, Tetrahydro-2H-pyran-2-ylmethyl 2-({2-chloro-4-fluoro-5-[3-methyl-2,6-dioxo-4-(trifluoromethyl)-3,6-dihydropyrimidin-1(2H)-yl]phenyl}sulfanyl)butanoate]	100	100		100	100	100	100	100	80	100	100			20		90			
Cn1c(C(F)(F)F)cc(=O)n(-c2cc(SCC(C)(C)C(=O)NCC3CCCO3)c(Cl)cc2F)c1=O (stereo not drawn) [I.48-221]	100	90			80				100	100	100	10					20		
Cn1c(C(F)(F)F)cc(=O)n(-c2cc(SCC(C)(C)C(=O)OCC3CCCOC3)c(Cl)cc2F)c1=O (stereo not drawn) [I.48-92, Tetrahydro-2H-pyran-3-ylmethyl 3-({2-chloro-4-fluoro-5-[3-methyl-2,6-dioxo-4-(trifluoromethyl)-3,6-dihydropyrimidin-1(2H)-yl]phenyl}sulfanyl)-2,2-dimethylpropanoate]	100	100					80	100	100	100	100	10	0		10				
CC(Sc1cc(-n2c(=O)cc(C(F)(F)F)n(C)c2=O)c(F)cc1Cl)C(=O)NCC1COC(C)(C)O1 (stereo not drawn) [I.1-334]	100	100			100		90	90	90	100	100	10						20	
CCC(Sc1cc(-n2c(=O)c(C)c(C(F)(F)F)n(C)c2=O)c(F)cc1Cl)C(=O)OCC1CCCO1 (stereo not drawn) [I.12-71]	100	100		100	80	100	80		100	100	100	0		0	0				
Cn1c(C(F)(F)F)cc(=O)n(-c2cc(SCC(C)(C)C(=O)OCC3CCOCC3)c(Cl)cc2F)c1=O [I.48-93]	100	100				100	80		100	100	100	0	0			80			
CCC(Sc1cc(-n2c(=O)c(C)c(C(F)(F)F)n(C)c2=O)c(F)cc1Cl)C(=O)NCC1CCCO1 (stereo not drawn) [I.12-221]	100	100			100		100		80	100	100	20	20		0				
Cc1c(C(F)(F)F)n(C)c(=O)n(-c2cc(SCC(C)(C)C(=O)OCC3CCCO3)c(Cl)cc2F)c1=O (stereo not drawn) [I.54-71]	100	100	80	80		100	100	100	80	100	100			20					0
COCCNC(=O)C(C)Sc1cc(-n2c(=O)cc(C(F)(F)F)n(C)c2=O)c(F)cc1Cl (stereo not drawn) [I.1-151]	100	100	80		100	100	100	100	100	100	100	20		20	20				
Cc1c(C(F)(F)F)n(C)c(=O)n(-c2cc(SCC(C)(C)C(=O)NCC3CCCO3)c(Cl)cc2F)c1=O (stereo not drawn) [I.54-221]	100	100			100	100	100		80	80		20	0					00	
